Test results: US20080221074A1, “Drug Screen and Treatment Method” (priority 2006, published 2008)
Read-outs that look alike come from different tables or passages of the source.

Key:
[1] = test system: bone loss after thermal injury; test: bone loss in thermally-injured mice; type: in vivo; conditions: 20% total body surface area thermal injury
Description: In bone loss conditions, 5-androstene-3β,7β,17β-triol affected the principal bone structures, i.e., cortical and trabecular layers and the growth plate. […] We observed partial protection against loss of bone mineral content as measured by dual X-ray absorptiometry.

[2] = test system: MG-63 cells; test: pilot studies of dexamethasone in MG-63 cells; type: cell-based; conditions: Homo sapiens
Description: The capacity of compounds including 5-androstene-3β,7β,17β-triol, 17α-ethynyl-5-androstene-3β,7β,17β-triol and 4-estrene-3α,17β-diol to reverse adverse effects of glucocorticoids in bone growth was shown in the human MG-63 osteosarcoma cell line. MG-63 cells are osteoblasts, which are cells that mediate bone growth. Theis cell line has been used extensively to study bone biology and to characterize the biological activity of compounds for treatment of bone loss conditions (e.g., B. D. Boyan et al., J. Biol. Chem., 264(20):11879-11886, 1989; L. C. Hofbauer et al., Endocrinology, 140(10):4382-4389, 1999). Adverse toxicities associated with elevated glucocorticoid levels include a decrease in the production of IL-6 and IL-8 by osteoblasts, including the MG-63 cell line, and an increase in the expression of the 11β-hydroxysteroid dehydrogenase type 1 enzyme (11β-HSD). Increased 11β-hydroxysteroid dehydrogenase type 1 enzyme results in increased levels of endogenous glucocorticoid activity by converting endogenous cortisone to the active cortisol, which inhibits bone growth. The 11β-HSD enzyme is expressed in liver, adipose tissue, brain and bone tissues. Cortisol generated by 11β-HSD-1 contributes to osteoporosis, insulin resistance, type 2 diabetes, dyslipidemia, obesity, central nervous system disorders such as stroke, neuron death, depression and Parkinson Disease. […]

[3] = test system: popliteal lymph node cells; test: reporter antigen popliteal lymph node (PLN) assay; type: in vivo, BALB/C mice; conditions: compound 1.0 and 0.1 mg/day; dexamethasone 5 μg/day
Description: Analysis of immune suppression. Glucocorticoid steroids such as dexamethasone or hydrocortisone are typically immune suppressive and have significant toxicities associated with their use. Immune suppression was examined in a reporter antigen popliteal lymph node assay in mice essentially as previously described (C. Goebel et al., Inflamm. Res., 45(Suppl. 2):S85-S90, 1996; R. Pieters et al., Environmental Health Perspectives 107(Suppl. 5):673-677, 1999). […] In this protocol, the vehicle was 0.1% carboxymethylcellulose, 0.9% saline, 2% tween 80 and 0.05% phenol, which contained 17α-ethynylandrost-5-ene-3β,7β,17β-triol in suspension in drug treated animals. Assessment of activity included (1) measuring suppression of numbers of total lymphocytes, antigen specific IgM, IgG1 and IgG2a antibody secreting cells (ASC) (ELISPOT assay) in popliteal lymph node cells; (2) analysis of cell surface marker (CD4, CD8, CD19, F480, CD80, CD86) expression by flow cytometry of living cells in suspension; and (3) IL-4, TNFα and IFNγ production by lymphocytes in vitro (ELISA).
Groups (n=5 per group) of specific pathogen free BALB/C mice were used. The Positive control group was treated with vehicle (oral gavage) and 5 μg/day dexamethasone by subcutaneous injection to induce immune suppression. Vehicle control animals (negative control) were treated with vehicle alone (oral gavage). One group of animals was treated with 17α-ethynylandrost-5-ene-3β,7β,17β-triol at 0.1 mg/day by oral gavage. Another group was treated with 1 mg/day of 17α-ethynylandrost-5-ene-3β,7β,17β-triol was administered to the animals oral gavage. The results were analyzed by two-tailed Student's t-test with equal variance. The animals were injected in the right hind footpad with 50 μL of freshly prepared sensitizing dose of TNP-OVA. […] Single cell suspensions were prepared, resuspended in 1 mL PBS-BSA (1%) and counted. Cell numbers, IL-4, IL-5 and IFNγ were measured.

[4] = test system: NF-κB; test: inhibition of NF-κB activation in NF-κB-bla THP-1 cells after LPS stimulation; type: cell-based, human; conditions: Homo sapiens, THP-1; LPS stimulation; 50% of the compound's maximum inhibition; averages; read-out: IC50
How it was run: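 THP-1 monocytes stably carrying an NF-κB response element–driven β-lactamase reporter, plated about 24 h before activation with LPS at 0.2 ng/mL. Reporter activity measured by FRET ratiometric detection; values are averages of usually 2-4 runs per compound.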

[5] = test system: human whole blood; test: γ-interferon production in human whole blood exposed to LPS; type: cell-based; conditions: 24 hours with LPS; 16α-bromoepiandrosterone at 100 ng/mL
Procedure: Anti-inflammation activity in human cells in vitro. […] The amount of γ-interferon was measured in the growth medium when the cells had been incubated in the presence of LPS for 24 hours.

[6] = test system: carrageenan-λ induced pleurisy; test: carrageenan-λ induced lung (pleural cavity) inflammation; type: in vivo, CD1 male mice; conditions: for number of neutrophils relative to negative control group (set at 100%): exudate 4 h after
Description: Treatment of lung inflammation. Three compounds, 3β,16α-dihydroxy-17-oxoandrostane, 3α,16β,17β-trihydroxyandrostane and 3α,16α,17α-trihydroxyandrostane were used to treat inflammation in mice essentially as described (D. Auci et al., Ann. New York Acad. Sci. 1051:730-742 2005). Five to 8 week old CD1 male mice (Charles River, Calco, Italy) were used for the study. The animals were housed in a controlled environment and provided with standard rodent chow and water. Animal care was in compliance with applicable regulations on protection of animals. Mice were allocated into one of the following groups: (1) mice treated with 2% carrageenan-k in saline (carrageenan-λ treated control group), (2) mice treated with 0.1 mg, 0.01 mg or 0.001 mg 3β,16α-dihydroxy-17-oxoandrostane by subcutaneous (s.c.) injection 24 h and 1 h before carrageenan-λ administration, (3) mice treated with 0.1 mg, 0.01 mg or 0.001 mg of 3α,16α,17α-trihydroxyandrostane by s.c. injection 24 and 1 h before carrageenan; (4) mice treated with 0.1 mg, 0.01 mg or 0.001 mg […],16β,17β-trihydroxyandrostane by s.c. injection 24 h and 1 h before carrageenan-λ administration; (5) mice treated with vehicle (0.1% carboxymethylcellulose, 0.9% saline, 2% tween 80, 0.05% phenol) s.c. 24 h and 1 h before carrageenan-λ administration; (6) mice treated with rabbit anti-mouse polyclonal anti-TNF-α antibody (200 μg) given as an intraperitoneal bolus 24 h and 1 h before carrageenan-λ administration (positive control group); and (7) sham-operated mice that were not treated with carrageenan-λ. Each group consisted of 10 mice. All treatments were given in a final volume of 100 μL. Lung (pleural cavity) inflammation was induced as follows. The mice were anaesthetised with isoflurane and a skin incision was made at the level of the left sixth intercostal space. The underlying muscle was dissected and either 0.1 mL saline (control) or 0.1 mL saline containing 2% λ-carrageenan was injected into the pleural cavity. The carrageenan-λ is a potent inducer of inflammation, which is manifested in this protocol by accumulation of fluid and neutrophils in the pleural cavity. The incision was closed with a suture and the animals were allowed to recover.
At 4 h after the injection of carrageenan-λ, the animals were euthanized by exposure to CO2. The chest was carefully opened and the pleural cavity rinsed with 1 mL of saline solution containing heparin (5 U/mL) and indomethacin (10 μg/mL). The exudate and washing solution were removed by aspiration and the total volume measured. Any exudate contaminated with blood was discarded. The amount of exudate was calculated by subtracting the injected 1 mL volume from the total pleural cavity volume that was recovered. The neutrophils in the exudate were suspended in phosphate-buffer saline and counted with an optical microscope in a Burker's chamber after Trypan Blue staining. The results were analysed by one-way ANOVA followed by a Bonferroni post-hoc test for multiple comparisons. A p-value less than 0.05 was considered significant. For statistical analysis each group was compared to the control group of mice that were challenged with carrageenan-k and received no other treatment.
The table below describes the number of neutrophils from the treated animal groups relative to untreated control animals that were exposed to carrageenan-λ, but not treated with anything else (negative control group). The neutrophil number for the negative control group was set at 100% and other groups were compared to this.

[7] = test system: human T lymphocytes (PBMC); test: human mixed lymphocyte reaction (MLR); type: cell-based; conditions: 300 nM or 30 nM
Description: Human mixed lymphocyte reaction (MLR). The capacity of 3β,16α-dihydroxy-17-oxoandrostane, 3β,17β-dihydroxy-16-oxoandrostane, 17α-ethynylandrost-5-ene-3β,7β,17β-triol, and 17β-aminoandrost-5-ene-3β-ol to affect antigen specific stimulation in which human T lymphocytes respond to a specific foreign antigen (major histocompatibility complex).
Blood samples were obtained from 3 (2 males, […]) fasting, healthy human volunteers of 23-31 years old. […] The subjects were bled between 9 and 10 AM to limit possible fluctuations in the circulating levels of hormones or cytokines that could have influenced the in vitro responses of their lymphocytes. Peripheral blood mononuclear cells (PBMC) were isolated by centrifugation on Ficoll-Hypaque (density 1.077, Biochrom AG, Berlin, Germany) gradients and resuspended in culture medium (RPMI 1640 supplemented with 2 mM L-glutamine, penicillin (100 U/mL) and streptomycin ([…]) (Invitrogen s.rl., Milan, Italy). Autologous (responder) inactivated plasma was used at 10%. Five hundred thousand responder PBMC (PBMCr) and 500,000 allogeneic irradiated (30 Gy) stimulator PBMC (PBMCs) were mixed at a ratio of 1:1 in 200 μL medium and cultured for 6 days in flat bottom 96 well plates (Nunc, Roskilde, Denmark) at a concentration of 300 nM or 30 nM for each of the 4 compounds. The compounds were dissolved in ethanol and then diluted to the desired concentration with culture medium leading to a final solution containing 0.01% of ethanol. This vehicle was used as control. Controls also included PBMCr and PBMCs cultured separately. During the last 8 hours of the culture period the PBMC were pulsed with […] [^3H] thymidine (Amersham, Milan, Italy). The cells were then harvested and radioactivity incorporation measured with a beta cell counter. The mean cpm of quadruplicate wells was calculated. Proliferation of T cells was expressed as a stimulation index: SI=cpm (PMBCs xPBMCr)/cpm (PBMCr)+cpm (PBMCs). Statistical analysis was performed using the Student's t test. The cpm obtained from quadruplicate of each test compound were compared to proliferative responses obtained in control PBMCr and PBMCs cultured in the presence of the vehicle. Differences were considered significant at p<0.05.

[8] = test system: lethal amount of bacterial lipopolysaccharide (LPS); test: lethal shock protocol; type: in vivo, mice; conditions: second assay; oral gavage 24 h before and 1 h after LPS
Procedure: Treatment of lethal inflammation/shock. Two compounds, 16α-bromoepiandrosterone (3β-hydroxy-16α-bromoandrostane-17-one) and 3β,16α-dihydroxy-17-oxoandrostane, were used in a lethal shock protocol. In one protocol, 3 mg of 16α-bromoepiandrosterone was administered to one group of animals by oral gavage, while another group received 3 mg of 16α-bromoepiandrosterone by subcutaneous injection. A group of control animals received a placebo control. In this protocol, the 16α-bromoepiandrosterone was administered to mice at 24 hours before and at 1 hour after administration of a lethal amount of bacterial lipopolysaccharide (LPS). By the end of the observation period, 72 hours after LPS administration, none of the vehicle treated placebo control animals had survived, while 65% of animals that received 16α-bromoepiandrosterone by oral administration survived. 50% of the animals that received 16α-bromoepiandrosterone by subcutaneous injection survived. Animals that survived for 72 hours all recovered from the LPS exposure.
In a second assay, 16α-bromoepiandrosterone or 3β,16α-dihydroxy-17-oxoandrostane was administered to mice by oral gavage at 24 hours before and 1 hour after administration of a lethal amount of LPS. A vehicle treated group of animals was used as the placebo control.

[9] = metabolic stability in liver microsomes, species not stated; conditions: compared with androst-5-ene-3β,17β-diol
Procedure: The protocol was performed as follows. […] (2) Set up samples as follows. […] (4) The internal standard/acetonitrile solution.

SMILES: C[C@]12CC[C@H]3[C@@H]([C@@H](O)C=C4C[C@@H](O)CC[C@@]43C)[C@@H]1CC[C@@H]2O [androst-5-ene-3β,7β,17β-triol]
- femur ash weight vs vehicle-treated burned mice [1]: significantly (p<0.01) greater
- loss of cortical and trabecular bone mass and suppression of chondrocyte proliferation [1]: significantly (p<0.01) prevented

SMILES: C[C@@H]1C[C@H]2[C@@H]3CCC4=CC(=O)C=C[C@]4(C)[C@@]3(F)[C@@H](O)C[C@]2(C)[C@@]1(O)C(=O)CO [dexamethasone, reference compound]
- IC50 ([2]; read-out: IC50 for inhibition of IL-6 from MG-63 cells): 10 nM
- IC50 ([2]; read-out: IC50 for inhibition of growth of MG-63 cells): 15.3 nM
- IFNγ, IL-4 and IL-5 levels compared to vehicle control [3]: reduced
- IC50 [4]: 0.47 nM

SMILES: C[C@]12CC[C@H](O)CC1CC[C@@H]1[C@@H]2CC[C@]2(C)C(=O)[C@H](O)C[C@@H]12 (stereo partly drawn) [3β,16α-dihydroxy-17-oxoandrostane]
- production of γ-interferon [5]: Reduced production
- number of neutrophils relative to negative control group (set at 100%) ([6]; 0.001 mg s.c. 24 h and 1 h before carrageenan-λ): 97%
- number of neutrophils relative to negative control group (set at 100%) ([6]; 0.01 mg s.c. 24 h and 1 h before carrageenan-λ): 73%
- volume of pleural exudate ([6]; 0.1 mg dose s.c.): significantly reduced
- number of neutrophils relative to negative control group (set at 100%) ([6]; 0.1 mg s.c. 24 h and 1 h before carrageenan-λ): 73%
- potency compared with polyclonal anti-TNF-α antibody control ([6]; s.c.): less potent
- immune suppression (inhibition of the MLR) [7]: not appreciably immune suppressive
- survival 72 hours after LPS [8]: 50%
- rate of metabolism by microsomes [9]: metabolized by microsomes at a rate similar to the androst-5-ene-3β,17β-diol reference compound
